Data on 1 compound can be found in patent US8278044B2, “Method for the identification of carcinogenic compounds” (priority 2008, dated 2012).

Series [1] has as its system HepG2 cells. Put plainly: Flow cytometric analysis of cell cycle. It counts as cell-based, human. Conditions: 3 μM BaP. The procedure: (§1) Two independent experiments were conducted.
(§2) Analyses of cell cycle profiles and apoptosis was performed as previously described using a FACSort (Becton Dickinson, Sunnyvale, USA) (29). For DNA content cells were stained with propidium iodide; apoptotic cells were visualised with the primary antibody M30 CytoDeath (Roche, Penzberg, Germany) and FITC conjugated anti-mouse Ig as secondary antibody (DakoCytomation, Glostrup, Denmark). For each sample 10,000 cells were analyzed. Cells in the G0-1, S or G2-M phase were expressed as a percentage of the total number of cells.
(In general: A flow cytometer gives signals particle by particle.)

The test system of series [2] is HepG2 cells. In words: Flow cytometric analysis of apoptosis (M30 CytoDeath). It counts as cell-based. Conditions: human, 3 μM. The procedure: as §1, §2
Series [3] has as its system HepG2 cells. In words: Gene expression analyses with DNA microarrays (Agilent), Reactome and T-profiler. It counts as cell-based, human. Conditions: 3 μM BaP. How it is done: Labelling and hybridisation of RNA samples was done according to Agilent's manual for microarrays (Agilent Technologies, Breda, The Netherlands). […] For each biological experiment, two hybridizations per time point were conducted, with swapped Cy3 and Cy5 dyes.
The images (10 micron resolution; 16 bit tiff) were processed with ImaGene 6.0 to quantify spot signals (BioDiscovery Inc., Los Angeles, USA). Irregular spots were automatically flagged and excluded from data analysis. Data from ImaGene were further processed with GeneSight 4.1.6 (BioDiscovery Inc., Los Angeles, USA). For each spot, background was subtracted and flagged spots as well as spots with a net expression level below 20 in both channels were omitted. Data were log base 2 transformed and LOWESS normalized. If for a gene more probes were on the array, replicates were averaged while omitting outliers (>2 standard deviations). Raw data are available at ArrayExpress (accession numbers E-TOXM-22 and E-TOXM-23, for the first and second experiment respectively) (www.ebi.ac.uk/arrayexpress/).
Second, genes were selected by ANOVA using the plug-in “Time series analysis” from BRB Array Tools (version 3.4 and R version 2.2.0; linus.nci.nih.gov/BRB-ArrayTools.html) with “Time” as descriptor.
Reactome (www.reactome.org; Version 25, August 2008) (45) is used to examine the biological processes that may be affected at the level of reactions and reaction pathways, a level of detail that cannot be obtained by gene ontology annotations, and KEGG and BioCarta pathways. Reactions are grouped into causal chains to form pathways. […] The ratio of these number of differentially genes per event with total numbers present in the set of 2808 genes, are used for visualisation of affected pathways. Rctions were ordered by main pathway and sub-pathway.
T-profiler is used for functional annotation of pathways and processes in the complete data set of genes without pre-selecting modulated genes. T-profiler uses the unpaired t-test to score the difference between the mean expression level of predefined sets of genes and that of all other genes within the complete data set (46). […] Per experiment and time point t-values were determined for each gene set. Only gene sets with an absolute t-value>4 at at least 2 succeeding time points in both experiments were selected for further analyses.

Consider `c1ccc2c(c1)cc1ccc3cccc4ccc2c1c34` [BaP, benzo[a]pyrene], for which, in the series with HepG2 cells [1], the “duration of S-phase accumulation” value was 6 to 18 h and the “time after which cell cycle distribution becomes similar to that of the controls” value was “about 54 h”. Moreover, in the series with HepG2 cells [1] (at 18 h, concomitant decrease of cells in G1 and G2 phases), the S-phase cells entry is “drastic increase”. Besides, the apoptotic cells levels in the series with HepG2 cells [2] is 0.5-3%. In the series with HepG2 cells [3], the “POLR2A expression (TC-NER)” value is “upregulated at early time points”; the “POLR2D expression (TC-NER)” value is recorded as “downregulated at late time points”; the “base excision repair and global genomic repair pathways” value is listed as “induced from 9/12 h until 60 h”; the “period of upregulation of DDB2 (GG-NER)” value lay in the range of 9 to 60 h. Further, in the series on HepG2 cells [3], the “period of upregulation of GC-NER (global genomic NER) reaction pathway” value was in the range of 9 to 60 h and the “period of upregulation of TC-NER reaction pathway” value lay in the range of 9 to 42 h.
